{"source": "patent US10413583B2", "about": "“Synthetic substrates for enzymes that catalyze reactions of modified cysteines and related methods” (The University of Chicago, priority 2016, dated 2019)", "key": {"APT2": {"target": "T1, APT2 (Homo sapiens, UniProt O95372)", "T1 construct": "His-tag; made in house; host or cells: E. coli ROSETTA DE3", "T1 sequence (O95372 whole entry)": "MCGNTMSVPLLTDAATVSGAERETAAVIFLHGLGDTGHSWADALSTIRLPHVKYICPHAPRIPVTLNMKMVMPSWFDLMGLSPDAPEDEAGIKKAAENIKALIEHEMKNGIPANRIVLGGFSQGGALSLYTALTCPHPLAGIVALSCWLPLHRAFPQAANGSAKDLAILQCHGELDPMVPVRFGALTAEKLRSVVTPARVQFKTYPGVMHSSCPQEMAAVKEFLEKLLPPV", "assay": "In vitro kinetic assay and emission spectra of DPP-1, DPP-2, DPP-3 with purified APT2 (with detergent)", "assay_type": "biochemical", "procedure": "(§1) 50 μL of 7.5 μM DPP1-3 in HEPES (20 mM, pH=7.4, 150 mM NaCl, 0.1% Triton X-100) were added to a 384-well black flat bottom plate (Corning Life Sciences, Corning, N.Y., United States of America) and placed in an Infinite M200 Pro (Tecan, Mannedorf, Switzerland) plate reader at 37° C. for 5 min to warm. 25 μL of either 4-(2-hydroxyethyl)-1-piperazineethanesulfonic acid (HEPES) buffer alone or HEPES buffer containing 150 nM APT1 or APT2, was added using a multi-channel pipette, resulting in a final concentration of 5 μM DPP1-3 and 50 nM APT1 or APT2. Fluorescence intensities (λex 490/9 nm, λem 545/20 nm, Gain 70, No. of flashes 25, Integration time 100 μs and Z-position 20000 μm) were measured at 30 second (s) time intervals for 20 min. At the end of 20 min kinetic run, emission spectra were obtained (λex 485 nm, Aem510-700 nm, Gain 100, No. of flashes 25, Integration time 100 μs and Z-position 20,000 μm)."}, "HEK293T cells": {"tested_on": "HEK293T cells", "assay": "Live cell fluorescence imaging and flow cytometry of DPP-2 and DPP-3 in HEK293T cells", "assay_type": "cell-based, human", "settings": "1 μM DPP-2 for 15 min, microscopy or flow cytometry", "procedure": "HEK293T (650,000 cells per dish) cells were plated with 1.5 mL of Dulbecco's Modified Eagle Medium (DMEM) (High Glucose, 10% fetal bovine serum (FBS)) in a 35 mm glass bottom dish (D35-10-1.5-N; Cellvis, Mountain View, Calif., United States of America) 24 hrs prior to imaging. 30 min before the addition of the DPP probe, the cell culture media was removed and cells were washed with 1 mL of Delbecco's phosphate-buffered saline (DPBS). The media was then replaced with 1 mL of DMEM containing 1 μM Hoechst 33342 and either 0.1% DMSO carrier as a control, 1 or 2 μM Palm B, 0.1, 1.0, or 5 μM ML348, and incubated for 30 min at 37° C. and 5% CO2. The media was removed, the cells were washed with 1 mL of Live Cell Imaging Solution (Thermo Fisher Scientific, Waltham, Mass., United States of America), and 1 mL of 1 μM DPP-2 or DPP-3 in Live Cell Imaging Solution was added to each plate. For ML348 0.1, 1.0, or 5 μM was added along with DPP-2 or DPP-3. After incubation for 15 min at 37° C. and 5% CO2, images were obtained on an inverted epi-fluorescence microscope (Olympus IX83; Olympus Corporation, Tokyo, Japan) attached with EMCCD camera (Photometrics EVOLVE™ Delta; Photometrics, Tucson, Ariz., United States of America) with 40× oil objective (N/A 1.3) for DPP-2 (excitation filter 500/20, dichroic chroma 89007, emission filter 535/30, exposure time 200 ms, EM gain 25), Hoechst 33342: (excitation filter 402/15, emission filter 455/50, dichroic chroma 89013, exposure time 30 ms, EM gain 25), and brightfield (exposure time 5 ms, EM gain 5), and for DPP-3 (exposure time 500 ms, EM gain 150), Hoechst 33342: (exposure time 30 ms, EM gain 25), and brightfield (exposure time 20 ms, EM gain 5). Analyses were performed in ImageJ. For data analysis, the average fluorescence intensity per image in each experimental condition was obtained by selecting regions of interest (ROIs) in the brightfield image. For display, the data were normalized to the average fluorescence intensity of the control conditions. Each experiment was repeated at least three separate times with identical results.\nCells were plated on a 10 cm dish with 10 mL of DMEM/High Glucose (10% FBS, 1% P/S, L-Glutamine, Sodium pyruvate) 36-48 hours prior to the day of experiment and maintained at 37° C., 5% CO2 so as to obtain 80-90% confluency. Cells were washed with DPBS and trypsinized with 1 mL 0.05% Trypsin. 5 mL of DMEM/High Glucose (10% FBS, L-Glutamine, Sodium pyruvate) was added and cells were spun down at 1200 rpm for 3 min. Media was discarded and cells were resuspended in 5 mL of Live Cell Imaging Solution and again spun down at 1200 rpm for 3 min. The cells pellets obtained were resuspended in 3-5 mL of Live Cell Imaging Solution and divided into 500 μL aliquots. The aliquots were treated with either 0.2% DMSO carrier or 1 μM of PalmB/ML348 or 1 μM/5 μM of ML349 inhibitor. After 30 min of incubation at room temperature, 1 μL of 2.5 mM DPP-3 in DMSO was added to each aliquot for a final concentration of 5 μM, and the solutions were mixed. After 5 min incubation at room temperature, fluorescence signal in FITC channel was measured for 10000 cells (5000 for HeLa experiments) on a LSR-Fortessa 4-15 HTS (BD digital instrument, 488 nm laser with 530/30 nm filter for FITC; BD, Franklin Lakes, N.J., United States of America). For analyzing DPP2 in HEK293T cells, the aliquots were treated with either 0.2% DMSO carrier or 2 μM of PalmB, 5 or 20 μM of ML348/ML349 and then analyzed by the protocol as mentioned above. Data was analyzed by FlowJo software version 10.0.8. For comparison of A431 starved versus non-starved, parallel 10 cm dishes of A431 cells were plated in 10 mL of DMEM (high glucose, 10% FBS, 1% P/S), and grown for 36 h. The growth media was removed, and replaced by 10 mL of either DMEM (High glucose) with 10% FBS to maintain “growth” conditions, or DMEM (High glucose) without FBS respectively for “starvation” conditions, and incubated for 14 h. […]"}, "[1]": {"assay": "Water solubility of probes (stated in words)", "assay_type": "physicochemical"}, "APT1": {"target": "T2, APT1 (Homo sapiens, UniProt O75608)", "T2 construct": "His-tag; made in house; host or cells: E. coli ROSETTA DE3", "T2 sequence (O75608 whole entry)": "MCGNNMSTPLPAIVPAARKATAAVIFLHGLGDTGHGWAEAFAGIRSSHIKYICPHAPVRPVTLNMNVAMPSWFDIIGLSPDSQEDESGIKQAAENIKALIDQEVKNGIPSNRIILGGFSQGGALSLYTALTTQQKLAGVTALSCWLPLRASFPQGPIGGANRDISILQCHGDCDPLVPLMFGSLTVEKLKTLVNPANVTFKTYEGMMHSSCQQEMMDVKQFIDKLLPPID", "assay": "In vitro kinetic assay and emission spectra of DPP-1, DPP-2, DPP-3 with purified APT1 (with detergent)", "assay_type": "biochemical", "procedure": "as §1"}}, "data": [{"compound": "CCCCCCCC(=O)SC[C@@H](C(=O)NC)N(C)C(=O)Oc1ccc2c(c1)Oc1cc(N(C)C)ccc1C21OC(=O)c2ccccc21", "note": "(some centres unmarked) [DPP-2]", "values": [{"measurement": "performance as substrate", "setting": "APT2", "value": "slightly better than DPP-1"}, {"measurement": "probe fluorescent signal in live cells", "setting": "HEK293T cells", "value": "robust intracellular fluorescent signal"}, {"measurement": "water solubility", "setting": "[1]", "value": "water soluble"}, {"measurement": "enhancement in fluorescence signal", "setting": "APT1; 5 μM probe, 50 nM APT1, 20 min", "value": 200, "unit": "fold"}, {"measurement": "performance as substrate / reaction kinetics", "setting": "APT1; purified APT1", "value": "slightly better than DPP-1"}]}]}
